Measured values reported in patent US8435975B2, “Steroidal esters of 17-oximino-5-androsten-3beta-ol” (Council of Scientific & Industrial Research, priority 2007, dated 2013).
“And” between values parts separate entries of the source, which are not always exact repeats. Equal values may be shown once.

Tests used:
[1] = test system: human prostate cancer cell line (DU-145); assay: Growth inhibitory activity assay (MTT assay), in vitro antiproliferative activity; format: cell-based; details: DU-145 cells; for % growth inhibition (mean ± SEM) / inhibition at 5 µg/mL: 5.0 μg/ml; for % growth inhibition (mean ± SEM) / inhibition at 0.01 µg/mL / inhibition at 0.5 µg/mL / inhibition at 1 µg/mL / inhibition at 2 µg/mL / inhibition at 5 µg/mL: 48 hr; for antiproliferative activity (in words): 0.01-5.0 μg/ml; for inhibition at 0.01 µg/mL / inhibition at 0.5 µg/mL / inhibition at 1 µg/mL / inhibition at 2 µg/mL / inhibition at 5 µg/mL: Homo sapiens, DU-145, 48 h, read-out: % growth inhibition (mean ± SEM); for inhibition at 0.01 µg/mL: 0.01 μg/ml; for inhibition at 0.5 µg/mL: 0.5 μg/ml; for inhibition at 1 µg/mL: 1.0 μg/ml; for inhibition at 2 µg/mL: 2.0 μg/ml
Procedure: 1) In Vitro Antiproliferative Activity Against Human Prostate Cancer Cell Line (DU-145)
Compounds were screened for antiproliferative activity on human prostate cell line DU-145 at National Centre of Human Genome Studies and Research. Panjab University, Chandigarh. All the compounds (10 to 16), Finasteride and starting material (9) were tested at five different concentrations: 0.01, 0.5, 1.0, 2.0, and 5.0 μg/ml. Finasteride was the positive control in this growth inhibitory assay.
Growth Inhibitory Activity Assay (MTT Assay)
We investigated the effect of newly synthesized compounds on cell growth inhibition using MTT assay. This assay quantifies the viable cells by observing the reduction of tetrazolium salt, MTT to formazan crystals by the live cells. Based on the absorbance of the cell sample after the test is carried out, cell viable can be measured [Loveland, B. E.; Jones, T. G.; Mackay. I. R.; Vaillant, F.; Wang, Z. X.; Hertzog, P. J. Biochem. International 1992, 27, 501 and Wright, S. A.; Thomas, L. N.; Douglas, R. C.; Lazier, C. B.; Rittmaster, R. S. J. Clin. Invest. 1996, 98, 2558]. Cells were cultured at a density of 5×10^3 cells/well in 96 well plates at 37° C. in 5.0% CO2 atmosphere and were allowed to attach for 24 hr. The cells were treated in triplicate with graded concentration of sample and reference drug Finasteride at 37° C. for 48 hr. A 20 μl aliquot of MTT solution was added directly to all the appropriate wells. Following 4 hr of incubation at […], the media was removed and formazan crystals, which results from the reduction of MTT by active cell were dissolved in 100 μl DMSO and vigorously mixed to dissolve the reacted dye. The absorbance of each well was read on Elisa plate reader (Merck) at 570 nm. The spectrometer was calibrated to zero absorbance using culture medium without cells. The relative cell viability (%) related to control well containing cell culture medium without drug was calculated by [A]test/[A]control×100. % Growth Inhibition=[OD]control−[OD]test/[OD]control×100 Results: […]

[2] = test system: 5α-reductase; assay: In vivo effect on serum testosterone level (5α-reductase inhibitory activity), ELISA; design: species or system Sprague Dawley rats; details: for Serum levels of Testosterone, T: Sprague Dawley male rats, intraperitoneal, Finasteride 40 mg/kg and equimolar dose of compounds, 6 hr after treatment
Procedure: Animals (Sprague Dawley male rats weighing 150-200 g) were divided into 3 groups; vehicle (control), Finasteride (standard), treated (test sample) and each group consist of 5 animals. Sprague Dawley rats were treated intraperitoneally with Finasteride 40 mg/kg and equimolar dose of compounds. After 6 hr of treatment, blood was withdrawn by cardiac puncture under diethyl ether anesthesia and serum was separated from cells by centrifugation. Plasma testosterone values were obtained by ELISA plate reader at […] and are given in ng/ml.
The aliquots of 50 μl of each of standards, control and unknown (serum samples) were added to Testosterone Antibody coated wells. 100 μl of HRP-testosterone conjugate was added to all the wells and the plates were shaken gently on a shaker for proper mixing of the reagents. Following 4 hr of incubation at 37° C., the incubation mixture was removed. The wells were washed with phosphate buffer for 5-6 times (200 μl each time), followed by addition of 100 μl of TMB/H2O2 substrate in each of the wells. The plates were further incubated at 37° C. for 20 minutes. At the end of incubation reaction was stopped by using 100 μl of 0.5 M H2SO4 as stopping reagent. The absorbance of each well was read on Elisa plate reader at 450 nm [Rassaie, M. J.; Kumari, G. L.; Pandey, P. K.; Gupta, N.; Kochupillai, N.; Grover, P. K. Steroids 1992, 57, 288 and Hosoda, H.; Yoshida, H.; Sakai, Y.; Miyairi, S.; Nambara, T. Chem. Pharm. Bull. 1980, 28, 3035]
Intact male rats (Sprague Dawley, 200-250 g) were used in the designed study in which various compounds were compared for in vivo 5α-reductase inhibitory potency, as judged by the their ability to attenuate the conversion of testosterone into dihydrotestosterone (DHT). […] The procedure measure T equally well, and method met all the requirement of precision, accuracy, sensitivity and selectivity.

[3] = In vitro cytotoxicity using mouse macrophages (acute toxicity), MTT assay; format: cell-based; details: both sexes, Balb C; mouse macrophages, from linear equation of MTT data; read-out: LC50 (concentration lethal to 50% population of cells)
Procedure: (§1) All steroids were dissolved in ethanol and diluted to appropriate concentration: 0.01, 0.5, 1.0, 2.0, 5.0 μg/ml from the two stock solution of 1 mg/ml and […]. Stocks were maintained at room temperature.
(§2) […] Approximately 1 ml of Phosphate buffer saline preincubated at 37° C. was injected into cavity. The abdomen was lavaged for 10 min and fluid along with macrophages were taken out using a syringe into polypropylene tube. The phosphate solution was spun at 800 rpm for 5-10 min and cells were resuspended in 1 ml RPMI media. Cell number was counted using haemocytometer.
(§3) Cells (mouse macrophages) were plated at a density of 5×10^3 cells/well in 96 plate at 37° C. in 5% CO2. Cells were exposed in graded concentration of compounds at designated various concentration. Each concentration was tested in triplicate wells. After 48 hr fresh MTT 20 μl (1 mg/ml) was added directly to all the wells and culture was incubated for 4 hr at 37° C. During this incubation, MTT was converted into a water insoluble formazan complex by metabolic activity of viable cells. Formazan crystal were taken and dissolved in 100 μl of DMSO, which give light pink colour. The absorbance of each well was read on Elisa plate reader (Merck) at 570 nm. The spectrometer was calibrated to zero absorbance using culture medium without cells. The relative cell viability (%) related to control well containing cell culture medium without drug was calculated by [A]test/[A]control×100. % Cell Viability=[A]test/[A]control×100 [A]test=absorbance test sample [A]control=absorbance control sample Results: LC50: Concentration of the Compound in μg/ml (μm), Lethal to 50% Population of Cells.
(§4) The assay quantifies the viable cells, after […] incubation of cells with five different concentrations.

[4] = test system: mouse macrophages (Balb C); assay: as above; format: cell-based
Procedure: as §1, §2, §3, §4

[5] = both, Balb C, mouse, 48 h, 0.01 μg/ml
[6] = both, Balb C, mouse, 48 h, 0.5 μg/ml
[7] = both, Balb C, mouse, 48 h, 1 μg/ml
[8] = both, Balb C, mouse, 48 h, 2 μg/ml
[9] = both, Balb C, mouse, 48 h, 5 μg/ml

Compound	% growth inhibition (mean ± SEM) [1] [%]	antiproliferative activity (in words) [1]	inhibition at 0.01 µg/mL [1] [%]	inhibition at 0.5 µg/mL [1] [%]	inhibition at 1 µg/mL [1] [%]	inhibition at 2 µg/mL [1] [%]	inhibition at 5 µg/mL [1] [%]	Serum levels of Testosterone, T [2]	CC50 at 48 h [3] [µM]	% viable Cells (mean ± SEM) [4, 5] [%]	% viable Cells (mean ± SEM) [4, 6] [%]	% viable Cells (mean ± SEM) [4, 7] [%]	% viable Cells (mean ± SEM) [4, 8] [%]	% viable Cells (mean ± SEM) [4, 9] [%]	other results
C[C@]12CC[C@H](OC(=O)c3ccccc3)CC1=CC[C@@H]1[C@@H]2CC[C@]2(C)C(=NO)CC[C@@H]12 [Compound 13, 17-oximino-5-androsten-3β-yl benzoate]	91.10 ± 2.10	more potent than the reference Finasteride	47 ± 1.67	48.9 ± 1.66	67.6 ± 1.62	85.9 ± 4.08	> 90	1.05 ± 0.08 ng/mL and 1.05 ng/mL	89.4						% viable Cells (mean ± SEM) ([4]; mouse macrophages, 0.01 μg/ml): 87.71 ± 0.29%; % viable Cells (mean ± SEM) ([4]; mouse macrophages, 0.5 μg/ml): 84.74 ± 0.27%; % viable Cells (mean ± SEM) ([4]; mouse macrophages, 1.0 μg/ml): 83.61 ± 0.20%; % viable Cells (mean ± SEM) ([4]; mouse macrophages, 2.0 μg/ml): 83.85 ± 0.28%; % viable Cells (mean ± SEM) ([4]; mouse macrophages, 5.0 μg/ml): 82.99 ± 0.36%; toxicity to mouse macrophages (in words) ([4]; mouse macrophages, 0.01-5.0 μg/ml): non toxic to mouse macrophages
C[C@]12CC[C@H](OC(=O)c3ccc(O)cc3)CC1=CC[C@@H]1[C@@H]2CC[C@]2(C)C(=NO)CC[C@@H]12 [Compound 15, 17-oximino-5-androsten-3β-yl 4-hydroxybenzoate]	91.54 ± 0.19	more potent than the reference Finasteride	62.6 ± 2.46	76.9 ± 5.94	83.08 ± 0.75	91.4 ± 1.5	> 90	0.73 ng/mL	22	89.80 ± 2.95	81.02 ± 2.83	63.99 ± 0.91	56.88 ± 0.39	55.36 ± 0.19	
C[C@]12CC[C@H](OC(=O)c3ccc(N)cc3)CC1=CC[C@@H]1[C@@H]2CC[C@]2(C)C(=NO)CC[C@@H]12 [Compound 14, 17-oximino-5-androsten-3β-yl 4-aminobenzoate]	91.02 ± 1.25	more potent than the reference Finasteride	71.8 ± 4.24	62.1 ± 11.4	79.5 ± 7.76	83.9 ± 6.7	> 90	1.19 ng/mL	29.4	85.75 ± 0.28	77.69 ± 0.38	76.80 ± 0.23	75.82 ± 0.33	72.82 ± 0.28	effect on serum testosterone level (in words) ([2]; rats, 6 hr post dose, compared to control): increased activity
